Article PMC3792051, “Polyenylpyrrole Derivatives Inhibit NLRP3 Inflammasome Activation and Inflammatory Mediator Expression by Reducing Reactive Oxygen Species Production and Mitogen-Activated Protein Kinase Activation” (PLoS ONE, 2013)

Legend:
RAW 264.7 cells = assay: AlamarBlue assay for cell viability (cytotoxicity); conditions: read-out: IC50 (cytotoxicity), RAW 264.7 macrophages, 24 h treatment, 6.25-100 µM tested
[1] = tested on: LPS-activated JAWSII dendritic cells; assay: IL-6 and TNF-α secretion by ELISA; type: cell-based, murine; conditions: 10-40 µM, LPS 1 µg/ml 24 h
Experimental: (§1) The effects of the test samples on IL-1β, TNF-α, and IL-6 production were measured by ELISA according to the manufacturer’s instructions. In brief, 50 µl of biotinylated antibody reagent and 50 µl of supernatant were added to a stripwell plate precoated with anti-mouse IL-1β, TNF-α, or IL-6 antibodies, which was then incubated at room temperature for 2 h. After washing the plate three times with washing buffer, 100 µl of diluted streptavidin-HRP concentrate was added to each well and the plate incubated at room temperature for 30 min. The washing process was repeated, then 100 µl of a premixed tetramethylbenzidine substrate solution was added to each well and the plate incubated at room temperature in the dark for 30 min. After addition of 100 µl of stop solution to each well, the absorbance at 450 nm of each well was measured on a microplate reader.
(§2) Figure 3 Effect of compound 1h on LPS-induced secretion of IL-6 and TNF-α by J774A.1 macrophages, peritoneal macrophages, and JAWSII dendritic cells. (A) J774A.1 macrophages, (B) peritoneal macrophages, or (C) JAWSII dendritic cells (all 4 × 10^5/ml; 1 ml) were incubated for 30 min with 10-40 µM compound 1h or DMSO, then LPS (1 µg/ml) was added and incubation continued for 24 h, then IL-6 levels (left panels) and TNF-α levels (right panels) in the culture medium were measured by ELISA. The data are expressed as the mean ± SD for three separate experiments. *, **, and *** indicate a significant difference at the level of p < 0.05, p < 0.01, or p < 0.001, respectively, compared to the DMSO/LPS group.

[2] = tested on: LPS-activated J774A.1 macrophages; assay: IL-6 and TNF-α secretion by ELISA; type: cell-based, murine; conditions: J774A.1, 10-40 µM, LPS 1 µg/ml 24 h
Experimental: as §1, §2

[3] = tested on: LPS-activated RAW 264.7 macrophages; assay: MAPK (ERK1/2, JNK1/2, p38) phosphorylation by Western blot; type: cell-based, murine; conditions: RAW 264.7, 20 µM 30 min, LPS 1 µg/ml 0-60 min
Experimental: Cells were washed twice with ice-cold phosphate-buffered saline (PBS) and lysed on ice for 5 min with lysis buffer (20 mM Tris-HCl, pH 7.5, 150 mM NaCl, 1 mM Na 2EDTA, 1 mM EGTA, 1% Triton X-100, 2.5 mM sodium pyrophosphate, 1 mM beta-glycerophosphate, 1 mM Na 3VO4, 1 µg/ml of leupeptin, 1 mM PMSF, protease inhibitor cocktail). The lysate was then centrifuged at 12,000 x g at 4 °C for 10 min and the pellet discarded. […]
Figure 5 Effect of compound 1h on ROS production and MAPK phosphorylation in LPS-activated macrophages. In (A), RAW 264.7 macrophages (5 × 10^5/ml; 1 ml) were incubated for 30 min with compound 1h (20 µM), N-acetyl cysteine (NAC; 10 mM), or DMSO (vehicle), then 2’, 7’-dichlorofluorescein diacetate (2 µM) was added for 30 min, followed by LPS (1 µg/ml) stimulation for the indicated time, then ROS levels were measured by detection of the mean fluorescence intensity (MFI) of the fluorophore carboxyl-DCF and expressing this value relative to that at time zero. In (B), RAW 264.7 macrophages (5 × 10^5/ml; 1 ml) were incubated for 30 min with compound 1h (20 µM) or DMSO, then LPS (1 µg/ml) was added and incubation continued for 0-60 min, then phosphorylation of ERK1/2, JNK1/2, and p38 was analyzed by Western blotting and expressed relative to actin expression and as a fold increase compared to the control group at 0 time. […]

## O=c1cc(O)cc(/C=C/C=C/C=C/C=C/c2[nH]ccc2Cl)o1 [compound 1h]
RAW 264.7 cells
  IC50: > 100 µM
[1]
  LPS-induced IL-6 secretion: reduced LPS-induced IL-6 and TNF-α secretion
  LPS-induced TNF-α secretion: reduced LPS-induced IL-6 and TNF-α secretion
[2]
  LPS-induced IL-6 secretion: reduced secretion of IL-6 and TNF-α
  LPS-induced TNF-α secretion: reduced secretion of IL-6 and TNF-α
[3]
  Phosphorylation of ERK1/2, JNK1/2 and p38: inhibited phosphorylation of all 3 MAPKs
